Where no end group is shown, it is not given here.
What was measured:
MFF knockout MEFs = experiment: Mitochondrial ROS (MitoSox), MFF knockout MEFs; assay type: cell-based, mouse; settings: 4 µM P259 daily for three days, vs no peptide; 3 independent experiments, three technical replicates; ns p = 0.23
Description: (§1) Data are of 3 independent experiments with the whiskers calculated by the Turkey method. e. […]
production in an Mff -dependent manner. Mitochondrial reactive oxygen species production […]
treatment in each cell line. […]
(§2) determined by an unpaired, two -tailed t test). g. […]
control (no peptide treatment). Data are mean ± s.e. from 3 independent experiments.
Mitochondrial reactive oxygen species determination […]
and 1% penicillin-streptomycin solution (Corning, NY, USA). […]
(§3) and without phenol red. […] After incubation
(§4) HEPES, and without phenol red. […]
(§5) epifluorescence microscope with a 10X objective (Keyence). The Cy5 filter (Keyence) was used to autofocus on the mitochondria plane. […]
calculated as the average MitoSox signal per cell. […]

wild-type mice = experiment: Open-field activity chamber behavior; assay type: in vivo, mouse; settings: 3 mg/Kg/day
Description: (a) Quantification of mitochondrial Drp1 content relative to ALDH2 (a mitochondrial matrix enzyme) in the mitochondrial fraction isolated from total brain lysate of wild-type mice (Western blot shown in Fig. S3B) (n = 4 mice). (b) ATP content in brain tissue of wild-type mice (n = 4 mice, 2 replicates). (c) Representative transmission electron microscopy images of the striatum from wild-type mice. […] The first principal component represents 42% of the variation. (f) Local linear embedding dimensionality reduction and visualization of all behaviors collected weekly from TAT- (black) or P259- (purple) treated WT and TAT- (white) treated R6/2 mice over the course of 8 weeks. […] All behavior and survival tests were conducted by an experienced observer who was blinded to the treatment groups. Data are mean ± s.e.
Five-week old R6/2 HD mice and their wild-type littermates (a total of 60 mice) were implanted subcutaneously with a 28-d Alzet osmotic pump with either P259-TAT or TAT control peptide (15 mice per group) to be delivered continuously at a rate of 3 mg/Kg/day, as previously described. All mice were implanted twice for a total of an 8-week treatment. 20 of the WT mice were implanted 3 times for a total of a 12-week treatment at 3 mg/Kg/day. All the experiments were in accordance with protocols approved by the Institutional Animal Care and Use Committee of Stanford University and were performed based on the National Institutes of Health Guide for the Care and Use of Laboratory Animals. All methods were carried out in accordance with the relevant guidelines and regulations. […]
Survival and behavioral mice studies […]
All behavior and […]
survival tests were conducted by an experienced ob server who was blinded to the treatment groups.
Behavioral tests were administered weekly in an open-field activity arena (Med Associate s Inc, St.
Albans, VT. Model ENV-515) equipped with three planes of infrared detectors within a sound-proof chamber (Med Associates Inc., St. Albans, VT. MED-017-027), as described previously.12 Each mouse was placed in a corner of the chamber and was tracked for a period of 15 minutes.
The following activities were recorded: digging duration, grooming duration, climbing duration, rearing duration, seizure frequency, average velocity, active behaviors, total distance moved, jump counts/time, ambulatory counts/distance/time, latency towards center, stereotypic time/counts, resting time, vertical counts/time, and zone entries (center/periphery).
Dimensionality reduction of mouse behavior data
The collection of weekly behavior parameters for wild-type mice treated with P259 or the TAT control was assembled into a vector with a total of 180 behavior parameters per mouse. The top 20% of parameters contributing to treatment classification were filtered by using a combination of the ANOVA F- and the mutual information scores for each behavior. The filtered dataset was normalized and principal component analysis was performed using the Python scikit-learn package. An eigenvector was extracted to determine the contribution of each behavior to the first […]
treated wild-type mice and control-treated R6/2 mice during the eight-week treatment were assembled into a single vector for each mouse. The dataset was normalized and local linear embedding from the Python scikit-learn package was used to reduce the dimensionality of and visualize the behavior parameters.

wild-type MEFs = experiment: Mitochondrial membrane potential (TMRM), WT MEFs; assay type: cell-based, mouse; settings: 20 µM P259 overnight, vs no peptide; 3 independent experiments, three technical replicates; ** p <0.01
Description: as §1, §2
control (no peptide treatment). Data are mean ± s.e. from 3 independent experiments. […]
as §3, §4, §5
Mitochondrial membrane potential determination
After treatment, cells were washed with
Cells were incubated in a 37
°C incubator for 30 minutes. […]

[1] = 8-week treatment, WT mice, n = 10 mice

“YGRKKRRQRRRGSGIIQLPEIVVV-NH2 (C-terminus assumed) [P259]” was tested, and the “effect on mitochondrial ROS levels, Mff knockout MEFs” value (MFF knockout MEFs) was “insensitive”, the active mouse behaviors (wild-type mice; [1]) was “less active” and the jumping and climbing (wild-type mice; [1]) was “jumped and climbed less frequently”. For the same substance, the total distance moved (wild-type mice; [1]) was “travelled for a shorter distance”, the “behavior profile, principal component analysis (top 20% of behaviors)” value (wild-type mice; 12 weeks, WT mice, vs TAT) was “successfully separated the behavior profile of P259- and TAT control-treated mice” and the “jump counts/time, periphery-to-center transition, movement counts, stereotypic time” value (wild-type mice; WT mice, tested weekly, 12 weeks, vs TAT-treated mice) was “performed worse than TAT-treated mice”. The “aggregate behavior score (local linear embedding)” value (wild-type mice; weekly over 8 weeks, P259-treated WT vs TAT-treated WT and TAT-treated R6/2 mice) was “intermediate aggregate behavior score between WT- and R6/2 control-treated mice” and the “mitochondrial membrane potential, WT MEFs” value (wild-type MEFs) was “decreases”.

From publication PMC6145916, “Interaction of mitochondrial fission factor with dynamin related protein 1 governs physiological mitochondrial function in vivo” (Scientific Reports, 2018)
